Where two headings read alike, the source gives them in different places.
Key:
[1] = target: T1, glutathione-S-transferase (GST) tagged LXRalpha LBD (ligand binding domain) (Homo sapiens, UniProt Q13133); experiment: LanthaScreen TR-FRET Liver X Receptor Coactivator Assay, co-activator recruitment to LXRalpha LBD; type: biochemical; details: for Emax: read-out: LXR alpha Activity @ max dose (%); for EC50 / LXR alpha IP (nM): potency (Inflection Point, IP), co-activator recruitment to LXRalpha LBD, in relation to T0901317; for EC50: read-out: LXR alpha IP
T1 construct: purchased Invitrogen pv4655
T1 sequence (Q13133 209-447 limits assumed): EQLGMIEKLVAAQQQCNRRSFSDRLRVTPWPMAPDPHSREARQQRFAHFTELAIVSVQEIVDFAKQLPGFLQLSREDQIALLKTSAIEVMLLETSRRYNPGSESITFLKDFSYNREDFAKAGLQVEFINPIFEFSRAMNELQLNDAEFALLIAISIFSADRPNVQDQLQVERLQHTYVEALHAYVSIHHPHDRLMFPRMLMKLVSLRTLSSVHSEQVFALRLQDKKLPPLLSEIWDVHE
Procedure, shortened: (§1)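 LXRα- or LXRβ-LBD protein was added to test compounds, then fluorescein-labelled coactivator peptide plus Tb-anti-GST antibody; after room-temperature incubation, TR-FRET was read. Inflection point (IP) and Emax were expressed relative to the dual agonist reference T0901317.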

[2] = target: T2, glutathione-S-transferase (GST) tagged LXRbeta LBD (ligand binding domain) (Homo sapiens, UniProt P55055); experiment: LanthaScreen TR-FRET Liver X Receptor Coactivator Assay, co-activator recruitment to LXRbeta LBD; type: biochemical; details: for Emax: read-out: LXR beta Activity @ max dose (%); for EC50: potency (Inflection Point, IP), co-activator recruitment to LXRbeta LBD, in relation to T0901317
T2 construct: purchased Invitrogen pv4658.pps
T2 sequence (P55055 222-460 limits assumed): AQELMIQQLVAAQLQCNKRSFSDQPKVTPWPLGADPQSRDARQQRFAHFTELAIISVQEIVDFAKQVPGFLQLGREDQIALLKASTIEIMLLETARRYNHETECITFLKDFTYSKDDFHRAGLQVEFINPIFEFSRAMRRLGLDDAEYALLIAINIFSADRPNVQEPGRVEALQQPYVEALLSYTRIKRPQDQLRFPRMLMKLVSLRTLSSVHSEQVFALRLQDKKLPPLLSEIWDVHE
Procedure, shortened: as §1

[3] = efficacy at max dose, in relation to reference dual agonist T0901317

SMILES	Emax [1, 3] [%]	EC50 [1] [nM]	Emax [2, 3] [%]	EC50 ([2]; read-out: LXR beta IP) [nM]	LXR alpha IP (nM) [1]	LXR alpha Activity @ max dose (%) [1, 3] [%]	LXR beta Activity @ max dose (%) [2, 3] [%]	Emax [1] [%]	EC50 ([2]; LXR beta IP (nM)) [nM]	Emax [2] [%]
CN(C)C(=O)c1ccc(N2CCC(CC3CCN(C(=O)[C@](O)(c4cccc(OC5CC5)c4)C(F)(F)F)CC3)CC2)cc1Cl [Example 2-99, 2-chloro-4-{4-[(1-{(2R)-2-[3-(cyclopropyloxy)phenyl]-3,3,3-trifluoro-2-hydroxy-propanoyl}piperidin-4-yl)methyl]piperidin-1-yl}-N,N-dimethyl-benzamide]	0	–	37	8	NO IP	–	–	–	–	–
CN(C)C(=O)c1ccc(N2CCC(CC3CCN(C(=O)C(O)(c4ccccc4)C4CCCCC4)CC3)CC2)nc1Cl (stereo not drawn) [Example 7-100, 2-chloro-6-[4-({1-[cyclohexyl(hydroxy)phenylacetyl]piperidin-4-yl}methyl)piperidin-1-yl]-N,N-dimethylpyridine-3-carboxamide]	–	–	–	–	NO IP	–	–	4	200	37
CN(C)C(=O)c1ccc(N2CCC(CC3CCN(C(=O)C(O)(c4ccc(Cl)cc4)C(F)(F)F)CC3)CC2)cc1Cl (stereo not drawn) [Example 2-15, 2-chloro-4-[4-({1-[2-(4-chlorophenyl)-3,3,3-trifluoro-2-hydroxy-propanoyl]piperidin-4-yl}methyl)piperidin-1-yl]-N,N-dimethyl-benzamide]	0	–	26	298	NO IP	–	–	–	–	–
COc1cccc([C@@](O)(C(=O)N2CC(CC3CCN(c4ccc(C(=O)N(C)C)c(Cl)c4)CC3)C2)C(F)F)c1 [Example 2-70, 2-chloro-4-[4-({1-[(2R)-3,3-difluoro-2-hydroxy-2-(3-methoxy-phenyl)propanoyl]azetidin-3-yl}methyl)piperidin-1-yl]-N,N-dimethyl-benzamide]	2	–	48	92	NO IP	–	–	–	–	–
COc1cccc([C@@](O)(C(=O)N2CCC(C)(CC3CCN(c4ccc(C(=O)N(C)C)c(C)c4)CC3)CC2)C(F)(F)F)c1 [Example 2-80, N,N,2-trimethyl-4-[4-({4-methyl-1-[(2R)-3,3,3-trifluoro-2-hydroxy-2-(3-methoxyphenyl)propanoyl]piperidin-4-yl}methyl)piperidin-1-yl]benzamide]	0	–	19	19	NO IP	–	–	–	–	–
C[C@H]1CCCN1C(=O)c1ccc(N2CCC(CC3CCN(C(=O)[C@](O)(c4ccccc4)C(F)(F)F)CC3)CC2)cc1Cl [Example 4-6, (2R)-3-(4-{[1-(3-chloro-4-{[(2S)-2-methyl-pyrrolidin-1-yl]carbonyl}phenyl)piperidin-4-yl]methyl}piperidin-1-yl)-1,1,1-trifluoro-3-trifluoro-3-oxo-2-phenylpropan-2-ol]	39	331	78	38	–	–	–	–	–	–

More lines, main results first:

Emax [1, 3] [%]	EC50 [1] [nM]	Emax [2, 3] [%]	EC50 ([2]; read-out: LXR beta IP) [nM]	LXR alpha IP (nM) [1]	LXR alpha Activity @ max dose (%) [1, 3] [%]	LXR beta Activity @ max dose (%) [2, 3] [%]	SMILES	Emax [1] [%]	EC50 ([2]; LXR beta IP (nM)) [nM]	Emax [2] [%]
21	307	73	17	–	–	–	CNC(=O)c1ccc(N2CCC(CC3CCN(C(=O)[C@](O)(c4cccc(C(C)C)c4)C(F)(F)F)CC3)CC2)cc1Cl [Example 7-123, 2-chloro-N-methyl-4-{4-[(1-{(2R)-3,3,3-trifluoro-2-hydroxy-2-[3-(1-methylethyl)phenyl]propanoyl}piperidin-4-yl)methyl]piperidin-1-yl}benzamide]	–	–	–
7	–	29	236	NO IP	–	–	CN(C)C(=O)c1ccc(N2CCC(CC3CCN(C(=O)C(F)(F)c4ccc(F)cc4)CC3)CC2)nc1Cl [Example 7-85, 2-chloro-6-[4-({1-[difluoro(4-fluorophenyl)acetyl]piperidin-4-yl}methyl)piperidin-1-yl]-N,N-dimethylpyridine-3-carboxamide]	–	–	–
50	3790	120	91	–	–	–	CNC(=O)c1ccc(N2CCC(OC3CCN(C(=O)C(O)(c4cccc(F)c4)C(F)(F)F)CC3)CC2)cc1Cl (stereo not drawn) [Example 7-30, 2-chloro-N-methyl-4-[4-({1-[3,3,3-trifluoro-2-(3-fluorophenyl)-2-hydroxypropanoyl]piperidin-4-yl}oxy)piperidin-1-yl] benzamide]	–	–	–
0	–	21	236	NO IP	–	–	COc1cccc([C@@](N)(C(=O)N2CCC(CC3CCN(c4ccc(C(=O)N(C)C)c(Cl)n4)CC3)CC2)C(F)(F)F)c1 [Example 7-114, 6-[4-({1-[(2R)-2-amino-3,3,3-trifluoro-2-(3-methoxyphenyl)propanoyl]piperidin-4-yl}methyl)piperidin-1-yl]-2-chloro-N,N-dimethylpyridine-3-carboxamide]	–	–	–
46	40	109	2	–	–	–	CN(C)C(=O)c1ccc(N2CCC(CC3(C)CCN(C(=O)[C@](O)(c4cc(F)cc(Cl)c4)C(F)(F)F)CC3)CC2)nc1Cl [Example 7-46, 2-chloro-6-[4-({1-[(2R)-2-(3-chloro-5-fluorophenyl)-3,3,3-trifluoro-2-hydroxypropanoyl]-4-methylpiperidin-4-yl}methyl)piperidin-1-yl]-N,N-dimethylpyridine-3-carboxamide]	–	–	–
9	–	83	30	NO IP	–	–	CC(C)Oc1cccc([C@@](O)(C(=O)N2CC(CC3CCN(c4ccc(C(=O)N(C)C)c(Cl)n4)CC3)C2)C(F)(F)F)c1 [Example 7-42, 2-chloro-N,N-dimethyl-6-{4-[(1-{(2R)-3,3,3-trifluoro-2-hydroxy-2-[3-(1-methylethoxy)phenyl]propanoyl}azetidin-3-yl)methyl]piperidin-1-yl}pyridine-3-carboxamide]	–	–	–
61	215	107	20	–	–	–	CNC(=O)c1ccc(N2CCC(CC3CCN(C(=O)C(O)(c4cccc(C#N)c4)C(F)(F)F)CC3)CC2)nc1Cl (stereo not drawn) [Example 7-144, 2-chloro-6-[4-({1-[2-(3-cyanophenyl)-3,3,3-trifluoro-2-hydroxypropanoyl]piperidin-4-yl}methyl)piperidin-1-yl]-N-methylpyridine-3-carboxamide]	–	–	–
–	–	–	3	NO IP	0	51	CN(C)C(=O)c1ccc(N2CCC(CC3CCN(C(=O)[C@](O)(c4cc(Cl)cc(Cl)c4)C(F)(F)F)CC3)CC2)nc1Cl [Example 7-104, 2-chloro-6-[4-({1-[(2R)-2-(3,5-dichlorophenyl)-3,3,3-trifluoro-2-hydroxypropanoyl]piperidin-4-yl}methyl)piperidin-1-yl]-N,N-dimethylpyridine-3-carboxamide]	–	–	–
17	251	60	5	–	–	–	CN(C)C(=O)c1ccc(N2CCC(CC3CCN(C(=O)[C@](O)(c4cccc(OC(F)F)c4)C(F)(F)F)CC3)CC2)nc1Cl [Example 7-115, 2-chloro-6-{4-[(1-{(2R)-2-[3-(difluoromethoxy)phenyl]-3,3,3-trifluoro-2-hydroxypropanoyl}piperidin-4-yl)methyl]piperidin-1-yl}-N,N-dimethylpyridine-3-carboxamide]	–	–	–
